From US8968703B2, “13C-MR detection using hyperpolarised 13C-fructose” (GE Healthcare Limited, priority 2009, dated 2015)

How the values were obtained:
[1] = 11.7T NMR studies of hyperpolarized [2-13C]-fructose (T1, percent polarization); assay type: physicochemical; details: for T1 sec (11.7T): C2 fructose carbon, mono-exponential fit of hyperpolarized signal decay; for % pol (corrected): percent polarization corrected for transfer time using T1 decay
Experimental: A 4.0M solution of 2-[^13C]-fructose (Isotec, Miamisburg, Ohio) in water containing 15 mM OX063 trityl radical (Oxford Instruments) was hyperpolarized on a Hypersense instrument (Oxford Instruments) as described by Ardenkjaer-Larsen et al (2003) Increase in signal-to-noise ratio of >10,000 times in liquid-state NMR. Proc. Natl. Acad. Sci. U.S.A. 100, 10158-10163. The frozen sample was dissolved in 1× phosphate buffered saline (PBS), with a resultant pH of 7.6, and transferred immediately to a 10 mm NMR tube.
NMR studies were performed on an 11.7T Varian INOVA spectrometer (125 MHz ^13C, Varian Instruments) using a 10 mm ^15N/[…]/^13C triple-tuned direct detect probe. Initially, a thermal spectrum was acquired for a natural abundance fructose sample in 1×PBS buffer at 37° C. (nt=9000, sw=30000, np=30000, TR=3.5 s, acq time=0.5 s) using an Ernst angle pulse (45 degrees). […] The C2 carbon resonances correspond to the isomeric distribution of the two ring forms (pyranose and furanose forms) of the fructose molecule.
For the acquisition of hyperpolarized ^13C spectra […] pulse hyperpolarized ^13C NMR spectra (1 average, spectral window=30000 Hz, number of points=30000, TR=3.5 s, acq time=0.5 s, total acq time=2 min 55 s) were acquired using a 5° pulse and proton decoupled using a waltz-16 decoupling scheme. Hyperpolarized studies were followed by acquisition of thermal data using nearly identical parameters, using a 90° tip angle and a repeat time of roughly four T1's (TR=76 s, nt=64). T1's were determined by performing a mono-exponential fit to the signal decay curve of the hyperpolarized compounds. Signal enhancement percent polarizations were calculated by comparing the hyperpolarized and thermal data sets and accounting for differences in tip angle and transients obtained. Solid state polarizations were calculated by correcting the enhancement for the transfer time from the polarizer using the T1 decay.

[2] = 3T T1 studies of hyperpolarized [2-13C]-fructose in solution; assay type: physicochemical; details: for T1 sec (3T): C2 fructose carbon, solution spectra, monoexponential fit
Experimental: T1 studies were performed using a 3T GE Signa™ scanner (GE Healthcare. Waukesha, Wis.) equipped with the MNS (multinuclear spectroscopy) hardware package. Solution spectra were acquired using a 5° non localised pulse, TR=3 s and fit to a monoexponential. The RF coil used in these experiments was a dual-tuned ^1H-^13C coil with a quadrature ^13C channel and linear ^1H channel construction based on an earlier design and also used in ^13C-pyruvate mouse imaging studies. For animal studies, T2-weighted fast spin echo images were acquired prior to MRSI studies to denote anatomy and place voxels on the region of interest. In vivo MRSI studies were carried out using a compressed sensing double spin 3D MRSI acquisition scheme as previously published by Hu S et al. (2008) Compressed sensing for resolution enhancement of hyperpolarized 13C flyback 3D-MRSI. J Magn Reson 192, 258-264, with a TE=140 ms. TR=215 ms, FOV=8 cm×8 cm, and 16×8 resolution. 500 μl of 80 mM [2-^13C]-fructose was injected similar to described by Albers M J et al. (2008) Hyperpolarized 13C lactate, pyruvate and alanine: noninvasice biomarkers for prostate cancer detection and grading. Cancer Res. 68, 8607-8615, for [1-^13C] pyruvate in a transgenic model of prostate cancer (TRAMP). These injections were compared to the standard [1-^13C]-pyruvate injection for the same voxel in a tumor region of interest.

[3] = 11.7T NMR studies of hyperpolarized [2-13C]-fructose (T1, percent polarization); assay type: physicochemical; details: pH ranges 5.9-7.8
hexokinase = experiment: NMR study of enzymatic conversion of hyperpolarized fructose to fructose-6-phosphate; assay type: biochemical; details: 400 U hexokinase
Experimental: For NMR studies of the enzymatic conversion of Fructose to fructose-6-phosphate, hyperpolarized [2-^13C]-fructose was reacted with 400 U of hexokinase (Sigma Aldrich) in the presence of 15 mM ATP, 50 mM TRIS and 13 mM MgCl2. The labelling and mechanism for transport and metabolism is shown below (FIG. 1), though in this enzymatic study the transport element has been removed and the enzyme activity was independently measured. Peaks corresponding to fructose-6-phosphate were identified using a natural abundance carbon spectrum, using a similar set of experimental parameters.

T1 sec (11.7T) [1] [s]	% pol (corrected) [1] [%]	T1 sec (3T) [2] [s]	SMILES	Relaxation times (T1) ([1]; at 11.7 T) [s]	Percent polarization, average over isomers ([1]; averages for the isomers of fructose) [%]	Isomeric ratio of fructose pyranose to furanose in solution ([1]; in solution)	T1 dependence on pH [3]	Relaxation times (T1) ([2]; at 3T) [s]	Time to conversion to fructose-6-phosphate after addition to hexokinase (hexokinase; 15 mM ATP, 50 mM TRIS, 13 mM MgCl2) [s]	Conversion of fructose to fructose-6-phosphate in thermal spectrum (hexokinase; thermal spectrum acquired over 85 minutes post DNP)
15.5 ± 0.5	11.8 ± 2.0	13.4 ± 0.4	OC[C@H]1O[C@@](O)(CO)[C@@H](O)[C@@H]1O [A-fructofuranose]	–	–	–	–	–	–	–
–	–	–	O=[13C](CO)[C@@H](O)[C@H](O)[C@H](O)CO [fructose, [2-^13C]-fructose]	15 to 16	~12	approximately 77/23	no T1 dependence on pH	13 to 14	≤ 5	fully converted
15.8 ± 0.5	11.6 ± 2.5	13.4 ± 2.5	OC[C@H]1O[C@](O)(CO)[C@@H](O)[C@@H]1O [β-fructofuranose]	–	–	–	–	–	–	–
16.3 ± 0.5	12.0 ± 2.2	14.5 ± 0.3	OC[C@@]1(O)OC[C@@H](O)[C@@H](O)[C@@H]1O [β-fructopyranose]	–	–	–	–	–	–	–
